Test results as given in patent US9150528B2, “Compound having detrusor muscle-contracting activity and urethral sphincter muscle-relaxing activity” (ONO PHARMACEUTICAL CO., LTD., priority 2009, dated 2015).

Assays:
[1] = system: underactive bladder models; test: Residual urinary volumes and bladder capacities in underactive bladder models (cystometry); format: in vivo, rat; settings: 0.01 mg/kg, oral, underactive bladder model rats
Description: The underactive bladder models were constructed in accordance with the following procedure. Female Wistar rats (8 to 9 weeks age) were anesthetized by intraperitoneal administration of Somnopentyl (40 mg/kg), followed by dorsal shaving, and fixed in abdominal positions. Each of the dorsal areas was disinfected with chlorhexidine gluconate (5% hibitane liquid). The waist area was median-incised to expose the spinal column. After excision of the fifth lumbar spinous process, a silicone rubber was inserted into the sixth lumbar direction from a hole bored by a mini drill. For the purpose of avoiding infections, after completion of the surgical operation, benzylpenicillin potassium (25000 U/0.25 mL/body) was added dropwise to the incised area. The muscle and skin of the incised area were sutured with silk threads, and iodine tincture was applied to the sutured area. After the operation, maintenance of voiding was carried out by manual compressions three times daily. For the purpose of avoiding infections, potassium penicillin G (1.25 units/body) was administered subcutaneously. More than 5 days prior to cystometric evaluation, a catheter for cystometrogram was indwelled in the bladder. Anesthesia with sodium pentobarbital (40 mg/kg by intraperitoneal administration) and incision along the midline of the abdomen were carried out, followed by incision of the apex of the bladder. A catheter for cystometrogram filled with physiological saline was inserted into the bladder from a hole of the apical area, and fixed by ligation using silk suture threads. […]
The rats were anesthetized with ether and housed in a Bollmann cage 2 weeks after the construction of the models. To the front end of each of the bladder catheters, a pressure transducer via a three-way cock was connected, and the intravesical pressure was recorded using a strain pressure amplifier•recorder. […]
[…] After 1 hr, physiological saline was perfused into the bladder at a flow rate of 2 mL/h and voiding parameters (bladder capacity and residual urinary volume) were measured. […] Voiding parameters were calculated for each cystometry. […]

normal rats = test: Blood pressures and heart rates in normal rats; format: in vivo, rat; settings: oral
Description: The blood pressures and heart rates of female Wistar rats were measured in accordance with the following procedure. On the day of measurement, indwelling of catheters for blood pressure•heart rate measurement was carried out under anesthesia with ether. The back of the neck of each rat was incised; a feeding catheter (Atom Medical Corporation) filled with heparinized physiological saline was introduced from the back of the neck; the catheter was inserted into the common carotid artery; and the surgical incision was closed. The measurements were carried out in a Bollmann cage under the conscious state, and the evaluations were carried out after confirming that the individual parameters were stabilized. After confirming the stabilization of blood pressure and heart rate, the test compound which was prepared using injectable water containing equimolar NaOH was orally administered at a dose of 5 mL/kg.
The catheter drawn from the back of the neck was connected to a pressure transducer (DX-200, NIHON KOHDEN CORP.), and the blood pressures and heart rates were measured using an amplifier for pressure measurement (Gould Instrument). The blood pressures and heart rates were recorded using a recorder (LINEARCORDERWR3320, GRAPHTEC). For each individual, rates of increase and decrease in average blood pressure and heart rate before administration and 30, 60, 120, and 180 min after administration were calculated with respect to the values of each individual before administration. Changes in blood pressure and heart rate before and after administration of the test compound were evaluated.

[2] = system: human lyophilized liver cells; test: Stability evaluation in lyophilized liver cells; format: in vitro ADME; settings: 37° C.
Description: KHEM5100 medium which includes human lyophilized liver cells after dissolving (final concentration of living cells: 1×10^6 cells/mL) and the test compound (acetonitrile or methanol solution, final concentration≦1%) was incubated at 37° C. Immediately after reaction and with the passage of reaction time, some portions were sampled from the medium. The concentrations of the test compound in the samples were measured by LC/MS/MS. The residual rate of the test compound relative to immediately after reaction was calculated by the following equation: Residual rate=the concentration of the test compound in the sample after reaction/the concentration of the test compound in the sample immediately after reaction×100(%) The residual rates were plotted on a single logarithmic scale against reaction time to calculate loss rate constants. The test was repeated (n=2), and the obtained values were averaged.

[3] = Systemic clearance after intravenous administration; format: in vivo; settings: plasma, cynomolgus monkey, 0.001 mg/mL/kg
Description: Equimolar sodium hydroxide and injectable distilled water were added to each of the test compounds to prepare a 1 mg/mL aqueous solution. The aqueous solution was diluted with physiological saline until the concentration reached 0.001 mg/mL and was rapidly administered at a dose of 0.001 mg/mL/kg to cynomolgus monkey through the cephalic vein. Via heparinized syringes, 2 min, 5 min, 15 min, 30 min, 1 hr, 2 hr, 4 hr, 6 hr, 8 hr and 24 hr after administration, blood was drawn from the cephalic vein (non-administered sites). After centrifugation, blood plasma was sampled and stored at −80° C. before pretreatment. The blood plasma was pretreated by mixing with acetonitrile and centrifuging to remove proteins followed by measurement by LC/MS/MS. Changes of concentration in blood plasma was analyzed using WinNonlin4.0.1 to evaluate the systemic clearance of the test compound.

[4] = Parallel artificial membrane permeability assay (PAMPA); format: in vitro ADME; settings: sum of pH 5.0, 6.2 and 7.4, 25° C., read-out: membrane permeability coefficients (PAMPA(SUM))
Description: The permeability of the drugs through artificial membranes was measured by parallel artificial membrane permeability assay (PAMPA) under the following conditions. For the measurements, a PAMPA system (pION) was used. The membrane permeability was evaluated by measuring membrane permeability coefficients at three pH values and summing the values (PAMPA(SUM)(cm/sec)).
Lipid membrane: GIT-0 (pION)
Incubation temperature: 25° C.
Donor: 5% DMSO-containing buffer
Compound concentration: 50 μmol/L

With `C[C@@](O)(C/C=C/[C@H]1CCC(=O)[C@@H]1CCSc1nc(C(=O)O)cs1)CCC(F)=C(F)F` [Compound 17, 2-[(2-{(1R,5R)-2-oxo-5-[(1E,4S)-7,8,8-trifluoro-4-hydroxy-4-methyl-1,7-octadien-1-yl]cyclopentyl}ethyl)thio]-1,3-thiazole-4-carboxylic acid] the bladder capacity ([1]; versus normal group) was “no effect”, the residual urinary volume ([1]; versus vehicle group) was “significant reduction” and the “effect on the blood pressure” value (normal rats; 0.3 mg/kg) was “no effect”. For the same molecule, the “effect on the heart rate” value (normal rats; 0.3 mg/kg) was “no effect”, the “effect on the blood pressure” value (normal rats; 1 mg/kg) was “no effect” and the Residual rate ([2]; Reaction time 0 h) was 100%. It also gave a Residual rate ([2]; Reaction time 0.5 h) of 111%, a Residual rate ([2]; Reaction time 1 h) of 101% and a Residual rate ([2]; Reaction time 1 h, listed as compound 17) of 100%. For the same molecule, the Residual rate ([2]; Reaction time 2 h) was 82.2%, the Residual rate ([2]; Reaction time 2 h, listed as compound 17) was ≥ 80% and the clearance [3] was 3.6 mL/min/kg. It also gave a Papp at 4 hr, 50 μmol/L [4] of 59.3 ×10⁻⁶ cm/s.
